Read-outs that look alike come from different tables or passages of the source.
What was measured:
CDK2/Cyclin E = CDK2/Cyclin E (Homo sapiens, UniProt P24941); test: CDK2/Cyclin E biochemical phosphorylation assay (Caliper mobility shift)
Experimental: (§1) Inhibitory effects of the compounds of the disclosure were measured in biochemical assays that measure the enzymatic phosphorylation activity of CDK enzyme in complex of Cyclin proteins phosphorylates 7.5 micromolar fluorescently labelled peptide substrate, 5-FAM-QSPKKG-CONH2, (FL-Peptide 18, Perkin Elmer, 760362) in the presence of adenosine-5′-triphosphate (ATP) and varying concentrations of the test compound in 100 mM 2-[4-(2-hydroxyethyl)piperazin-1-yl] ethanesulfonic acid (HEPES), pH 7.5, 10 mM MgCl2, 0.015% Brij-35, 1 mM dithiothreitol (DTT), 1.0% dimethylsulfoxide (DMSO). Assays were performed at 1.0 mM ATP or at ATP Km of the CDK enzymes in complex with Cyclin proteins. Reactions proceeded until between 10% to 20% total peptides were phosphorylated at room temperature (25° C.) and were terminated with 35 mM 2,2′,2″,2′″-(ethane-1,2-diyldinitrilo)tetraacetic acid (EDTA). Product was detected using the Caliper mobility shift detection method where the phosphorylated peptide (product) and substrate were electrophoretically separated and measured. Percent activity was plotted against log concentration of compound and points to generate an apparent IC50. The following CDK enzymes in complex with different cyclin proteins were used in these assays: • CDK1/Cyclin B1, GST-tag (BPS, 40454), 1.5 nM used in the assay • CDK2/Cyclin E (Eurofins, 14-475), 1.25 nM used in the assays
(§2) For inhibitory activity against CDK2/Cyclin E mutant, the following designations are used: ≤10 nM=A; >10-20 nM=B; >20-30 nM=C; >30-100 nM=D and >100=E. For inhibition CDK1/Cyclin B1, GST-tag: ≥500 nM=A; <100-500 nM=B; <100 nM=C.

CDK1/Cyclin B1, GST-tag = molecular target: T1, CDK1/Cyclin B1, GST-tag (Homo sapiens, UniProt P06493); test: CDK1/Cyclin B1 biochemical phosphorylation assay (Caliper mobility shift); settings: apparent IC50; 1.0 mM ATP or ATP Km; 1.5 nM enzyme; 25° C.
T1 construct: GST
T1 sequence (P06493 whole entry): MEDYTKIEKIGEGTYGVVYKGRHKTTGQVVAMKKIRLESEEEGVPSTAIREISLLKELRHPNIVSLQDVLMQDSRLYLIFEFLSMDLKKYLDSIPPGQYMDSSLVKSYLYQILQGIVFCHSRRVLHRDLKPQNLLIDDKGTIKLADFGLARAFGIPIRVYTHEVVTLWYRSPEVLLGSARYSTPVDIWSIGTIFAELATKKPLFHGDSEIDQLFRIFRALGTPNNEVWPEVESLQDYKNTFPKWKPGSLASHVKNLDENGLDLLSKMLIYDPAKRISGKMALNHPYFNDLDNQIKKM
T1 sequence (P14635 whole entry partner): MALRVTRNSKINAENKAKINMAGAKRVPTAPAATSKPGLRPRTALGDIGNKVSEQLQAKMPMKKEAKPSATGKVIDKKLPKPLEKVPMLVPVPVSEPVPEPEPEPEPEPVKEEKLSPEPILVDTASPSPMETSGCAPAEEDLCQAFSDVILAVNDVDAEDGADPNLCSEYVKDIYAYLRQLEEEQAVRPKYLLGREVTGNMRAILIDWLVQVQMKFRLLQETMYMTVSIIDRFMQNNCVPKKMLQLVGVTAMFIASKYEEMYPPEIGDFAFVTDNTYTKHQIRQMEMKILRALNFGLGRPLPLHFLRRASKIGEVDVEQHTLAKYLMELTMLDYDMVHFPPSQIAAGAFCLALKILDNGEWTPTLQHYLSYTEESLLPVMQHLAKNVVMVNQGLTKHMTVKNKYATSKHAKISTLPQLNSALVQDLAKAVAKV
Experimental: as §1, §2

[1] = apparent IC50, 1.0 mM ATP or ATP Km, 1.25 nM enzyme, 25° C., read-out: CDK2/cyclin E1 IC50

| IC50 (CDK2/Cyclin E; additional compounds not disclosed herein, assays of Biological Example 1, read-out: inhibitory activity for CDK2/cyclin E1) | Structure (SMILES) | IC50 (CDK2/Cyclin E; [1]) | IC50 (CDK1/Cyclin B1, GST-tag) |
| --- | --- | --- | --- |
| > 10000 nM | CC(c1cccn(C)c1=O)n1ncc2ncc(Nc3cc(OC(F)F)[nH]n3)nc21 (stereo not drawn) |  |  |
|  | FC(F)Oc1cc(Nc2cnc3cnn(C[C@@H]4CC45CC5)c3n2)n[nH]1 (racemic) [Example 109, (R)-N-(5-(difluoromethoxy)-1H-pyrazol-3-yl)-1-(spiro[2.2]pentan-1-ylmethyl)-1H-pyrazolo[3,4-b]pyrazin-6-amine and (S)-N-(5-(difluoromethoxy)-1H-pyrazol-3-yl)-1-(spiro[2.2]pentan-1-ylmethyl)-1H-pyrazolo[3,4-b]pyrazin-6-amine] | ≤ 10 nM | 100 to 500 nM |
|  | CC[C@H]([C@H](C)O)n1ncc2ncc(Nc3cc(OC(F)F)[nH]n3)nc21 (single isomer, unassigned) [Example 5, (2S,3R)-3-(6-((5-(difluoromethoxy)-1H-pyrazol-3-yl)amino)-1H-pyrazolo[3,4-b]pyrazin-1-yl)pentan-2-ol or (2S,3S)-3-(6-((5-(difluoromethoxy)-1H-pyrazol-3-yl)amino)-1H-pyrazolo[3,4-b]pyrazin-1-yl)pentan-2-ol] | ≤ 10 nM | ≥ 500 nM |
|  | CC[C@@H]([C@H](C)O)n1ncc2ncc(Nc3cc(OC(F)F)[nH]n3)nc21 (single isomer, unassigned) [Example 6, (2S,3S)-3-(6-((5-(difluoromethoxy)-1H-pyrazol-3-yl)amino)-1H-pyrazolo[3,4-b]pyrazin-1-yl)pentan-2-ol or (2S,3R)-3-(6-((5-(difluoromethoxy)-1H-pyrazol-3-yl)amino)-1H-pyrazolo[3,4-b]pyrazin-1-yl)pentan-2-ol] | 30 to 100 nM | ≥ 500 nM |
|  | C[C@@H]([C@@H]1CCOC1)n1ncc2ncc(Nc3cc(OC(F)F)[nH]n3)nc21 (single isomer, unassigned) [Example 9] | ≤ 10 nM | ≥ 500 nM |
|  | C[C@H]([C@H]1CCOC1)n1ncc2ncc(Nc3cc(OC(F)F)[nH]n3)nc21 (single isomer, unassigned) [Example 10] | ≤ 10 nM | < 100 nM |
|  | C[C@H]([C@@H]1CCOC1)n1ncc2ncc(Nc3cc(OC(F)F)[nH]n3)nc21 (single isomer, unassigned) [Example 11] | 20 to 30 nM | ≥ 500 nM |
|  | C[C@@H]([C@H]1CCOC1)n1ncc2ncc(Nc3cc(OC(F)F)[nH]n3)nc21 (single isomer, unassigned) [Example 12] | 30 to 100 nM | ≥ 500 nM |
|  | C[C@@H](c1cc(F)ccn1)n1ncc2ncc(Nc3cc(OC(F)F)[nH]n3)nc21 (single isomer, unassigned) [Example 13, (S)—N-(5-(difluoromethoxy)-1H-pyrazol-3-yl)-1-(1-(4-fluoropyridin-2-yl)ethyl)-1H-pyrazolo[3,4-b]pyrazin-6-amine or (R)—N-(5-(difluoromethoxy)-1H-pyrazol-3-yl)-1-(1-(4-fluoropyridin-2-yl)ethyl)-1H-pyrazolo[3,4-b]pyrazin-6-amine] | ≤ 10 nM | < 100 nM |
|  | C[C@H](c1cc(F)ccn1)n1ncc2ncc(Nc3cc(OC(F)F)[nH]n3)nc21 (single isomer, unassigned) [Example 14, (R)—N-(5-(difluoromethoxy)-1H-pyrazol-3-yl)-1-(1-(4-fluoropyridin-2-yl)ethyl)-1H-pyrazolo[3,4-b]pyrazin-6-amine or (S)—N-(5-(difluoromethoxy)-1H-pyrazol-3-yl)-1-(1-(4-fluoropyridin-2-yl)ethyl)-1H-pyrazolo[3,4-b]pyrazin-6-amine] | 10 to 20 nM | ≥ 500 nM |
|  | FC[C@@H](c1ccccn1)n1ncc2ncc(Nc3cc(OC(F)F)[nH]n3)nc21 (single isomer, unassigned) [Example 15, (R)—N-(5-(difluoromethoxy)-1H-pyrazol-3-yl)-1-(2-fluoro-1-(pyridin-2-yl)ethyl)-1H-pyrazolo[3,4-b]pyrazin-6-amine or (S)—N-(5-(difluoromethoxy)-1H-pyrazol-3-yl)-1-(2-fluoro-1-(pyridin-2-yl)ethyl)-1H-pyrazolo[3,4-b]pyrazin-6-amine] | 30 to 100 nM | ≥ 500 nM |
|  | FC[C@H](c1ccccn1)n1ncc2ncc(Nc3cc(OC(F)F)[nH]n3)nc21 (single isomer, unassigned) [Example 16, (S)—N-(5-(difluoromethoxy)-1H-pyrazol-3-yl)-1-(2-fluoro-1-(pyridin-2-yl)ethyl)-1H-pyrazolo[3,4-b]pyrazin-6-amine or (R)—N-(5-(difluoromethoxy)-1H-pyrazol-3-yl)-1-(2-fluoro-1-(pyridin-2-yl)ethyl)-1H-pyrazolo[3,4-b]pyrazin-6-amine] | ≤ 10 nM | ≥ 500 nM |
|  | FC[C@H](c1cccnc1)n1ncc2ncc(Nc3cc(OC(F)F)[nH]n3)nc21 (single isomer, unassigned) [Example 18, (S)—N-(5-(difluoromethoxy)-1H-pyrazol-3-yl)-1-(2-fluoro-1-(pyridin-3-yl)ethyl)-1H-pyrazolo[3,4-b]pyrazin-6-amine or (R)—N-(5-(difluoromethoxy)-1H-pyrazol-3-yl)-1-(2-fluoro-1-(pyridin-3-yl)ethyl)-1H-pyrazolo[3,4-b]pyrazin-6-amine] | 20 to 30 nM | ≥ 500 nM |
|  | FC[C@@H](c1cccnc1)n1ncc2ncc(Nc3cc(OC(F)F)[nH]n3)nc21 (single isomer, unassigned) [Example 19, (R)—N-(5-(difluoromethoxy)-1H-pyrazol-3-yl)-1-(2-fluoro-1-(pyridin-3-yl)ethyl)-1H-pyrazolo[3,4-b]pyrazin-6-amine or (S)—N-(5-(difluoromethoxy)-1H-pyrazol-3-yl)-1-(2-fluoro-1-(pyridin-3-yl)ethyl)-1H-pyrazolo[3,4-b]pyrazin-6-amine] | ≤ 10 nM | 100 to 500 nM |
|  | O=C1C[C@H](Cn2ncc3ncc(Nc4cc(OC(F)F)[nH]n4)nc32)CN1 (single isomer, unassigned) [Example 20, (S)-4-((6-((5-(difluoromethoxy)-1H-pyrazol-3-yl)amino)-1H-pyrazolo[3,4-b]pyrazin-1-yl)methyl)pyrrolidin-2-one or (R)-4-((6-((5-(difluoromethoxy)-1H-pyrazol-3-yl)amino)-1H-pyrazolo[3,4-b]pyrazin-1-yl)methyl)pyrrolidin-2-one] | ≤ 10 nM | ≥ 500 nM |
|  | O=C1C[C@@H](Cn2ncc3ncc(Nc4cc(OC(F)F)[nH]n4)nc32)CN1 (single isomer, unassigned) [Example 21, (R)-4-((6-((5-(difluoromethoxy)-1H-pyrazol-3-yl)amino)-1H-pyrazolo[3,4-b]pyrazin-1-yl)methyl)pyrrolidin-2-one or (S)-4-((6-((5-(difluoromethoxy)-1H-pyrazol-3-yl)amino)-1H-pyrazolo[3,4-b]pyrazin-1-yl)methyl)pyrrolidin-2-one] | 20 to 30 nM | ≥ 500 nM |
|  | C[C@@H](c1cccnn1)n1ncc2ncc(Nc3cc(OC(F)F)[nH]n3)nc21 (single isomer, unassigned) [Example 24, (S)—N-(5-(difluoromethoxy)-1H-pyrazol-3-yl)-1-(1-(pyridazin-3-yl)ethyl)-1H-pyrazolo[3,4-b]pyrazin-6-amine or (R)—N-(5-(difluoromethoxy)-1H-pyrazol-3-yl)-1-(1-(pyridazin-3-yl)ethyl)-1H-pyrazolo[3,4-b]pyrazin-6-amine] | ≤ 10 nM | 100 to 500 nM |
|  | C[C@H](c1cccnn1)n1ncc2ncc(Nc3cc(OC(F)F)[nH]n3)nc21 (single isomer, unassigned) [Example 25, (R)—N-(5-(difluoromethoxy)-1H-pyrazol-3-yl)-1-(1-(pyridazin-3-yl)ethyl)-1H-pyrazolo[3,4-b]pyrazin-6-amine or (S)—N-(5-(difluoromethoxy)-1H-pyrazol-3-yl)-1-(1-(pyridazin-3-yl)ethyl)-1H-pyrazolo[3,4-b]pyrazin-6-amine] | 30 to 100 nM | ≥ 500 nM |
|  | N#C[C@@H]1C[C@H]1Cn1ncc2ncc(Nc3cc(OC(F)F)[nH]n3)nc21 (single isomer, unassigned) [Example 26, (1R,2R)-2-((6-((5-(difluoromethoxy)-1H-pyrazol-3-yl)amino)-1H-pyrazolo[3,4-b]pyrazin-1-yl)methyl)cyclopropane-1-carbonitrile or (1S,2S)-2-((6-((5-(difluoromethoxy)-1H-pyrazol-3-yl)amino)-1H-pyrazolo[3,4-b]pyrazin-1-yl)methyl)cyclopropane-1-carbonitrile] | > 100 nM | ≥ 500 nM |
|  | N#C[C@H]1C[C@@H]1Cn1ncc2ncc(Nc3cc(OC(F)F)[nH]n3)nc21 (single isomer, unassigned) [Example 27, (1S,2S)-2-((6-((5-(difluoromethoxy)-1H-pyrazol-3-yl)amino)-1H-pyrazolo[3,4-b]pyrazin-1-yl)methyl)cyclopropane-1-carbonitrile or (1R,2R)-2-((6-((5-(difluoromethoxy)-1H-pyrazol-3-yl)amino)-1H-pyrazolo[3,4-b]pyrazin-1-yl)methyl)cyclopropane-1-carbonitrile] | ≤ 10 nM | 100 to 500 nM |

Reference: patent US11970498B2, “CDK2 inhibitors” (BLUEPRINT MEDICINES CORPORATION, priority 2021, dated 2024)
